According to patent US6313171A, “Method for preventing or treating elevated blood lipid level-related diseases by administering cinnamic acid derivatives” (Korea Research Institute of Bioscience & Biotechnology, priority 1998, dated 2001):

Key:
[1] = Acute oral toxicity in ICR mice; assay type: in vivo, mouse
Description: 12 seven-week-old, specific pathogen-free ICR […] mice, six female mice each weighing about 25 to 29 g and six male mice each weighing about 34 to 38 g, were kept under an environment of 22±1° C., 55±5% relative humidity and 12L/12D photoperiod. Fodder (Cheiljedang Co., mouse and rat fodder) and water were sterilized and fed to the mice.
4-hydroxycinnamic acid purchased from Aldrich-Sigma Chemical Co. (St. Louis, Mo., U.S.A) was dissolved in 0.5% Tween 80 to a concentration of 100 mg/ml, and the solution was orally administered to the mice in an amount of 0.2 ml per 20 g of mouse body weight. […] Further, on the 10th day, the mice were sacrificed and the internal organs were visually examined.

[2] = Plasma cholesterol and triglyceride in two men with hyperlipidemia; assay type: in vivo, human; conditions: 10 mg/kg daily oral capsule, 60 days
Description: Two men in their mid-fifties, suffered by hyperlipidemia with blood cholesterol level ranging from 230 to 270 mg/dl and blood triglyceride level ranging from 200 to 220 mg/dl, were administered with a daily oral dose of 10 mg/kg of 4-hydroxycinnamic acid in the form of a capsule for 60 days. The plasma cholesterol and triglyceride contents were determined before and after the administration.

## O=C(O)/C=C/c1ccc(O)cc1 [4-Hydroxycinnamic acid, 4-hydroxycinnamic acid]
[1]; oral 1,000 mg/kg, 10th day
  autopsy, internal organs: had not developed any pathological abnormality
[1]; oral 1,000 mg/kg, 10 day test period
  weight changes: no weight loss was observed
[1]; oral 1,000 mg/kg, day 10
  survival: All the mice were alive
[1]; single oral dose 1,000 mg/kg, mice, 10 days
  toxicity: showed no toxicity
[2]
  reduction of plasma cholesterol content: 25%
  reduction of plasma triglyceride content: 20%
